Data published in paper PMC9172056 (Journal of medicinal chemistry, 2022).

Assays:
in vitro = conditions: cat
SARS-CoV-2 3CL^pro = SARS-CoV-2 3CL^pro (Severe acute respiratory syndrome coronavirus 2, UniProt P0DTD1); assay: biochemical; type: biochemical
MERS-CoV 3CL^pro = MERS-CoV 3CL^pro (Middle East respiratory syndrome-related coronavirus, UniProt K9N7C7); assay: biochemical
MERS-CoV 3CL^pro, sequence (K9N7C7 3248-3553 limits assumed): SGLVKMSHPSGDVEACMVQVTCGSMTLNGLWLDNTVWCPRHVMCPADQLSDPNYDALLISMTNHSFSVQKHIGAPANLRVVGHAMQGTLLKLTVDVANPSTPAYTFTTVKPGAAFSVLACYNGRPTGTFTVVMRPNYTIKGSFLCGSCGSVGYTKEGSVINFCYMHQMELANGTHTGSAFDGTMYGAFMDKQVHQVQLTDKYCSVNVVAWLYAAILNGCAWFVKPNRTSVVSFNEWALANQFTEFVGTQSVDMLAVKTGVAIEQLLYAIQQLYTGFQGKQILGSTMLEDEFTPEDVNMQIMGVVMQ

Compound | CC50 (in vitro) [µM] | IC50 (SARS-CoV-2 3CL^pro) [µM] | IC50 (MERS-CoV 3CL^pro) [µM] | fold lower IC50 than compound 1b (SARS-CoV-2 3CL^pro) [fold]
CC(C)C[C@H](NC(=O)OC1CC2(C1)CN(C(=O)OC(C)(C)C)C2)C(=O)N[C@H](C=O)C[C@H]1CCNC1=O [Compound 1b, tert-Butyl 6-((((S)-4-methyl-1-oxo-1-(((S)-1-oxo-3-((R)-2-oxopyrrolidin-3-yl)propan-2-yl)amino)pentan-2-yl)carbamoyl)oxy)-2-azaspiro[3.3]heptane-2-carboxylate] | > 100 |  |  | 
CC(C)C[C@H](NC(=O)OC1CC2(C1)CN(C(=O)OC(C)(C)C)C2)C(=O)N[C@@H](C[C@H]1CCNC1=O)C(O)S(=O)(=O)O (stereo partly drawn) [Compound 1c, Sodium (2S)-2-((S)-2-((((2-(tert-butoxycarbonyl)-2-azaspiro[3.3]heptan-6-yl)oxy)carbonyl)amino)-4-methylpentanamido)-1-hydroxy-3-((R)-2-oxopyrrolidin-3-yl)propane-1-sulfonate] | > 100 | 0.85 ± 0.07 | 0.28 ± 0.11 | 
CC(C)C[C@H](NC(=O)OC1CC2(C1)CN(C(=O)C(C)C)C2)C(=O)N[C@H](C=O)C[C@H]1CCNC1=O [Compound 2b, 2-Isobutyryl-2-azaspiro[3.3]heptan-6-yl ((S)-4-methyl-1-oxo-1-(((S)-1-oxo-3-((R)-2-oxopyrrolidin-3-yl)propan-2-yl)amino)pentan-2-yl)carbamate] | > 100 |  |  | 
CC(C)C[C@H](NC(=O)OC1CC2(C1)CN(C(=O)C(C)C)C2)C(=O)N[C@@H](C[C@H]1CCNC1=O)C(O)S(=O)(=O)O (stereo partly drawn) [Compound 2c, Sodium (2S)-1-hydroxy-2-((S)-2-((((2-isobutyryl-2-azaspiro[3.3]heptan-6-yl)oxy)carbonyl)amino)-4-methylpentanamido)-3-((R)-2-oxopyrrolidin-3-yl)propane-1-sulfonate] | > 100 | 0.65 ± 0.07 | 0.55 ± 0.07 | 
CC(C)C[C@H](NC(=O)OC1CC2(C1)CN(C(=O)Cc1ccccc1)C2)C(=O)N[C@H](C=O)C[C@H]1CCNC1=O [Compound 3b, 2-(2-Phenylacetyl)-2-azaspiro[3.3]heptan-6-yl ((S)-4-methyl-1-oxo-1-(((S)-1-oxo-3-((R)-2-oxopyrrolidin-3-yl)propan-2-yl)amino)pentan-2-yl)carbamate] | > 100 |  |  | ~13
CC(C)C[C@H](NC(=O)OC1CC2(C1)CN(C(=O)Cc1ccccc1)C2)C(=O)N[C@@H](C[C@H]1CCNC1=O)C(O)S(=O)(=O)O (stereo partly drawn) [Compound 3c, Sodium (2S)-1-hydroxy-2-((S)-4-methyl-2-((((2-(2-phenylacetyl)-2-azaspiro[3.3]heptan-6-yl)oxy)carbonyl)amino)pentanamido)-3-((R)-2-oxopyrrolidin-3-yl)propane-1-sulfonate] | > 100 | 0.26 ± 0.05 | 0.13 ± 0.03 | 
CC(C)C[C@H](NC(=O)OC1CC2(C1)CN(S(C)(=O)=O)C2)C(=O)N[C@H](C=O)C[C@H]1CCNC1=O [Compound 4b, 2-(Methylsulfonyl)-2-azaspiro[3.3]heptan-6-yl ((S)-4-methyl-1-oxo-1-(((S)-1-oxo-3-((R)-2-oxopyrrolidin-3-yl)propan-2-yl)amino)pentan-2-yl)carbamate] | > 100 |  |  | 
CC(C)C[C@H](NC(=O)OC1CC2(C1)CN(S(C)(=O)=O)C2)C(=O)N[C@@H](C[C@H]1CCNC1=O)C(O)S(=O)(=O)O (stereo partly drawn) [Compound 4c, Sodium (2S)-1-hydroxy-2-((S)-4-methyl-2-((((2-(methylsulfonyl)-2-azaspiro[3.3]heptan-6-yl)oxy)carbonyl)amino)pentanamido)-3-((R)-2-oxopyrrolidin-3-yl)propane-1-sulfonate] | > 100 | 0.76 ± 0.08 | 0.16 ± 0.01 | 
CC(C)C[C@H](NC(=O)OC1CC2(CCN(C(=O)OC(C)(C)C)C2)C1)C(=O)N[C@H](C=O)C[C@H]1CCNC1=O (stereo partly drawn) [Compound 5b, tert-Butyl 2-((((S)-4-methyl-1-oxo-1-(((S)-1-oxo-3-((R)-2-oxopyrrolidin-3-yl)propan-2-yl)amino)pentan-2-yl)carbamoyl)oxy)-6-azaspiro[3.4]octane-6-carboxylate] | > 100 |  | 0.7 ± 0.14 | 
CC(C)C[C@H](NC(=O)OC1CC2(CCN(C(=O)OC(C)(C)C)C2)C1)C(=O)N[C@@H](C[C@H]1CCNC1=O)C(O)S(=O)(=O)O (stereo partly drawn) [Compound 5c, Sodium (2S)-2-((S)-2-((((6-(tert-butoxycarbonyl)-6-azaspiro[3.4]octan-2-yl)oxy)carbonyl)amino)-4-methylpentanamido)-1-hydroxy-3-((R)-2-oxopyrrolidin-3-yl)propane-1-sulfonate] | > 100 | 0.75 ± 0.07 | 0.75 ± 0.07 | 
CC(C)C[C@H](NC(=O)OC1CCC2(C1)CN(C(=O)OC(C)(C)C)C2)C(=O)N[C@H](C=O)C[C@H]1CCNC1=O (stereo partly drawn) [Compound 6b, tert-Butyl 6-((((S)-4-methyl-1-oxo-1-(((S)-1-oxo-3-((R)-2-oxopyrrolidin-3-yl)propan-2-yl)amino)pentan-2-yl)carbamoyl)oxy)-2-azaspiro[3.4]octane-2-carboxylate] | > 100 |  |  | 
CC(C)C[C@H](NC(=O)OC1CCC2(C1)CN(C(=O)OC(C)(C)C)C2)C(=O)N[C@@H](C[C@H]1CCNC1=O)C(O)S(=O)(=O)O (stereo partly drawn) [Compound 6c, Sodium (2S)-2-((2S)-2-((((2-(tert-butoxycarbonyl)-2-azaspiro[3.4]octan-6-yl)oxy)carbonyl)amino)-4-methylpentanamido)-1-hydroxy-3-((R)-2-oxopyrrolidin-3-yl)propane-1-sulfonate] | > 100 | 1.2 ± 0.14 | 1.3 ± 0.14 | 
CC(C)C[C@H](NC(=O)OC1CC2(CCN(C(=O)C(C)C)CC2)C1)C(=O)N[C@H](C=O)C[C@H]1CCNC1=O [Compound 8b, 7-Isobutyryl-7-azaspiro[3.5]nonan-2-yl ((S)-4-methyl-1-oxo-1-(((S)-1-oxo-3-((R)-2-oxopyrrolidin-3-yl)propan-2-yl)amino)pentan-2-yl)carbamate] | > 100 |  |  | 
CC(C)C[C@H](NC(=O)OC1CC2(CCN(C(=O)C(C)C)CC2)C1)C(=O)N[C@@H](C[C@H]1CCNC1=O)C(O)S(=O)(=O)O (stereo partly drawn) [Compound 8c, Sodium (2S)-1-hydroxy-2-((S)-2-((((7-isobutyryl-7-azaspiro[3.5]nonan-2-yl)oxy)carbonyl)amino)-4-methylpentanamido)-3-((R)-2-oxopyrrolidin-3-yl)propane-1-sulfonate] | > 100 | 0.41 ± 0.01 | 0.52 ± 0.12 | 
CC(C)C[C@H](NC(=O)OC1CC2(CCN(C(=O)Cc3ccccc3)CC2)C1)C(=O)N[C@H](C=O)C[C@H]1CCNC1=O [Compound 9b, 7-(2-Phenylacetyl)-7-azaspiro[3.5]nonan-2-yl ((S)-4-methyl-1-oxo-1-(((S)-1-oxo-3-((R)-2-oxopyrrolidin-3-yl)propan-2-yl)amino)pentan-2-yl)carbamate] | > 100 |  |  | 
CC(C)C[C@H](NC(=O)OC1CC2(CCN(S(C)(=O)=O)CC2)C1)C(=O)N[C@H](C=O)C[C@H]1CCNC1=O [Compound 10b, 7-(Methylsulfonyl)-7-azaspiro[3.5]nonan-2-yl ((S)-4-methyl-1-oxo-1-(((S)-1-oxo-3-((R)-2-oxopyrrolidin-3-yl)propan-2-yl)amino)pentan-2-yl)carbamate] | > 100 |  |  | 
CC(C)C[C@H](NC(=O)OC1CC2(CCN(C#N)CC2)C1)C(=O)N[C@H](C=O)C[C@H]1CCNC1=O [Compound 11b, 7-Cyano-7-azaspiro[3.5]nonan-2-yl ((S)-4-methyl-1-oxo-1-(((S)-1-oxo-3-((R)-2-oxopyrrolidin-3-yl)propan-2-yl)amino)pentan-2-yl)carbamate] | > 100 |  |  | 
CC(C)C[C@H](NC(=O)OC1CN(C(=O)OC(C)(C)C)C1)C(=O)N[C@H](C=O)C[C@H]1CCNC1=O [Compound 12b, tert-Butyl 3-((((S)-4-methyl-1-oxo-1-(((S)-1-oxo-3-((R)-2-oxopyrrolidin-3-yl)propan-2-yl)amino)pentan-2-yl)carbamoyl)oxy)azetidine-1-carboxylate] | > 100 |  |  | 
CC(C)C[C@H](NC(=O)OC1(C)CN(C(=O)OC(C)(C)C)C1)C(=O)N[C@H](C=O)C[C@H]1CCNC1=O [Compound 13b, tert-Butyl 3-methyl-3-((((S)-4-methyl-1-oxo-1-(((S)-1-oxo-3-((R)-2-oxopyrrolidin-3-yl)propan-2-yl)amino)pentan-2-yl)carbamoyl)oxy)azetidine-1-carboxylate] | > 100 |  |  | 
CC(C)C[C@H](NC(=O)OCC1CN(C(=O)Cc2ccccc2)C1)C(=O)N[C@H](C=O)C[C@H]1CCNC1=O [Compound 15b, (1-(2-Phenylacetyl)azetidin-3-yl)methyl ((S)-4-methyl-1-oxo-1-(((S)-1-oxo-3-((R)-2-oxopyrrolidin-3-yl)propan-2-yl)amino)pentan-2-yl)carbamate] | > 100 |  |  | 
CC(C)C[C@H](NC(=O)OCC1CN(C(=O)C2CC3CCC2C3)C1)C(=O)N[C@H](C=O)C[C@H]1CCNC1=O (stereo partly drawn) [Compound 16b, (1-(Bicyclo[2.2.1]heptane-2-carbonyl)azetidin-3-yl)methyl ((S)-4-methyl-1-oxo-1-(((S)-1-oxo-3-((R)-2-oxopyrrolidin-3-yl)propan-2-yl)amino)pentan-2-yl)carbamate] | > 100 |  |  | 
CC(C)C[C@H](NC(=O)OCC1CN(S(C)(=O)=O)C1)C(=O)N[C@H](C=O)C[C@H]1CCNC1=O [Compound 17b, (1-(Methylsulfonyl)azetidin-3-yl)methyl ((S)-4-methyl-1-oxo-1-(((S)-1-oxo-3-((R)-2-oxopyrrolidin-3-yl)propan-2-yl)amino)pentan-2-yl)carbamate] | > 100 |  |  | 
[2H]C([2H])(OC(=O)N[C@@H](CC(C)C)C(=O)N[C@H](C=O)C[C@H]1CCNC1=O)C1CN(C(=O)OC(C)(C)C)C1 [Compound 18b, tert-Butyl 3-(((((S)-4-methyl-1-oxo-1-(((S)-1-oxo-3-((R)-2-oxopyrrolidin-3-yl)propan-2-yl)amino)pentan-2-yl)carbamoyl)oxy)methyl-d2)azetidine-1-carboxylate] | > 100 |  |  | 
